A short description of this series: Gaseous dielectric breakdown voltage measurement (Hipotronics OC60D-A dielectric strength tester). The class given is physicochemical. The following applies: for Dielectric breakdown voltage: gas, 0.1 inch (2.5 mm) gap, copper electrodes; for Performance as electrical insulator and interrupter (in words): judged from the dielectric breakdown voltage values in Tables 2 and 3. The method, then:
The gaseous dielectric breakdown voltages of PE-1, PE-2, CE-1, CE-2, and CE-3 were measured experimentally using a Hipotronics OC60D-A dielectric strength tester (available from Hipotronics, Brewster, N.Y., USA), which was modified to allow measurements on low pressure gases. The electrode configuration consisted of two copper electrodes separated by a 0.1 inch (2.5 mm) gap housed in a gas tight PFTE (polytetrafluoroethylene) test chamber. The test chamber was first evacuated and then PE-1, PE-2, CE-1, CE-2, or CE-3 was charged to full vapor pressure and evacuated to the measured pressures indicated in Tables 2 and 3. The dielectric breakdown voltage (measured in kV) was measured after each evacuation to determine the dielectric strength and the results are summarized in Tables 2 and 3.

The structures appear in SMILES notation.

As to `FS(F)(F)(F)(F)F` [CE-2, Sulfur hexafluoride], the Dielectric breakdown voltage is reported as 4.6 kV (pressure 13.9 kPa); 5.4 kV (pressure 27.6 kPa); 7.8 kV (pressure 41.4 kPa); 9.5 kV (pressure 55.2 kPa); 10.9 kV (pressure 69.0 kPa); 12.5 kV (pressure 82.8 kPa). The compound further gave a Dielectric breakdown voltage (pressure 110 kPa) of 15.3 kV, a Dielectric breakdown voltage (pressure 124 kPa) of 16.7 kV and a Dielectric breakdown voltage (pressure 139 kPa) of 18.0 kV.

`FC1(F)C(F)(F)C1(F)F` [CE-3, Perfluorocyclopropane]: the Dielectric breakdown voltage is, setting by setting: (pressure 13.9 kPa) 4.6 kV; (pressure 27.6 kPa) 6.4 kV; (pressure 41.4 kPa) 8.0 kV; (pressure 55.2 kPa) 9.5 kV; (pressure 69.0 kPa) 10.6 kV; (pressure 82.8 kPa) 12.0 kV. In addition, the Dielectric breakdown voltage by setting is: (pressure 110 kPa) 14.7 kV; (pressure 124 kPa) 16.0 kV; (pressure 139 kPa) 17.1 kV.

Take `FC(OC(F)(F)F)=C(F)C(F)(F)F` [PE-2, 1,2,3,3,3-Pentafluoro-1-(Perfluoromethoxy)Prop-1-Ene]: the “Performance as electrical insulator and interrupter (in words)” value is “excellent electrical insulators and interrupters”. For the setting “pressure 20 kPa”, this compound displayed a Dielectric breakdown voltage of 8.8 kV. The Dielectric breakdown voltage (pressure 40 kPa) turned out to be 10.9 kV. Moreover, the Dielectric breakdown voltage (pressure 60 kPa) stood at 15.6 kV. Also, the Dielectric breakdown voltage (pressure 80 kPa) was determined as 19.5 kV. Where the note is “pressure 100 kPa”, the Dielectric breakdown voltage came to 22.7 kV. The Dielectric breakdown voltage (pressure 120 kPa) is 25.7 kV. The compound also had a Dielectric breakdown voltage (pressure 140 kPa) of 28.9 kV.

Turning to `FC(F)=C(F)C(F)(F)F` [CE-1, Hexafluoropropene], the Dielectric breakdown voltage runs as follows: (pressure 20 kPa) 8.8 kV; (pressure 40 kPa) 9.8 kV; (pressure 60 kPa) 11.5 kV; (pressure 80 kPa) 13.9 kV; (pressure 100 kPa) 16.3 kV; (pressure 120 kPa) 18.4 kV. This compound also displayed a Dielectric breakdown voltage (pressure 140 kPa) of 20.1 kV.

Turning to `FC(OC(F)(F)C(F)(F)F)=C(F)C(F)(F)F` [PE-1, 1,2,3,3,3-Pentafluoro-1-(Perfluoroethoxy)Prop-1-Ene], the “Performance as electrical insulator and interrupter (in words)” value is “excellent electrical insulators and interrupters”. Further, the Dielectric breakdown voltage (pressure 20 kPa) was 8.7 kV. For the same compound, the Dielectric breakdown voltage (pressure 40 kPa) is reported as 13.5 kV. This compound came in with a Dielectric breakdown voltage (pressure 60 kPa) of 18.7 kV.

Source of the values: patent US11551827B2, “Perfluorinated 1-alkoxypropenes in dielectric fluids and electrical devices” (priority 2017, dated 2023).
